Data reported in patent EP0755928B1, “5-AMINOFLAVONE DERIVATIVES” (KYOWA HAKKO KOGYO CO., Ltd., priority 1995, dated 1996).

What was measured:
[1] = tested on: Human mammary cancer MCF-7 cell; assay: Human mammary cancer MCF-7 cell growth inhibition test (neutral red); type: cell-based; details: MCF7, MCF-7 cells, 72 hours, medium with 10^-8M estradiol, neutral red absorbance at 550 nm
Method: Human mammary cancer MCF-7 cell growth inhibition test
Each 0.1 ml of MCF-7 cells which had been prepared in a concentration of 5 x 10^4/ml using a medium prepared by adding 10% bovine fetal serum, 10^-8M estradiol (manufactured by Sigma), 100 units/ml penicillin and 100 µg/ml streptomycin to RPMI1640 medium (referred to as Medium B hereinafter) was distributed in each well of 96 well-microtiter plate. […] The supernatant was removed, each 0.1 ml of Medium B containing 0.02% neutral red was added to the residue, the mixture was allowed to stand at 37 °C for 1 hour in a CO2 gas incubator and the cells were stained by neutral red dye. The supernatant was removed and the residue was washed once with a physiological saline. Then, the dye was extracted with 0.001 N hydrochloric acid/30% ethanol and the absorbance at 550 nm was determined with a microplatereader.

[2] = tested on: estrogen-dependent human mammary cancer MCF-7; assay: Antitumor effects against estrogen-dependent human mammary cancer MCF-7 transplanted in nude mice; type: in vivo, female BALB/c-nu/nu mouse; details: Mus musculus, MCF7, po; dose 25 mg/kg orally, 5 days per week for two weeks; ratio of V/V0 of treated group to control group; judgement date day 14 to 25, differs per compound; read-out: T/C
Source text: Antitumor effects against estrogen-dependent human mammary cancer MCF-7
The tumor fragment (2 mm x 2 mm x 2mm) of human hormone dependent mammary cancer MCF-7 was transplanted subcutaneously in the flank of female BALB/c-nu/nu mouse (Nihon Crea), 7 to 9 weeks age. […] Mice having the tumor volume 25 to 200 mm^3 were selected 3 to 4 weeks after transplantation, and the test compounds were orally administered repeatedly to the groups (5 animals per group) for 5 days per a week, for total two weeks. In addition, estradiol propionate was administered again on the date of initial administration of the test compounds. Length and width of the tumor were determined every day, and the tumor volumes were calculated by means of ellipsoid approximation according to the following equation: […] [formula]
The tumor volume at initial administration (V0) and on the day of judgement (V) was calculated, and the tumor growth rate (V/V0) was calculated. T/C value was obtained as the ratio of V/V0 value of treated group relative to that of control group.

[3] = tested on: Mature female BALB/c mice; assay: Effect on uterus weight of mature mouse (anti-estrogenic activity); type: in vivo; details: dose 25 mg/kg, orally, repeatedly for 4 days; uteri isolated after 5 days; not treated group 106 mg
Method: The effect against the decrease in uterus weight of mature mouse
Mature female BALB/c mice, 9 weeks age, were divided into two groups (6 animals per group). The test compounds were repeatedly administered orally to one group for 4 days. After 5 days, the uteri were isolated and the weight thereof was measured.

With `CCN(CC)C(=O)OCc1c(F)c(N)c2c(=O)cc(-c3ccc(N)c(F)c3)oc2c1F` [Compound 1, 5-Amino-2-(4-amino-3-fluorophenyl)-7-diethylcarbamoyloxymethyl-6,8-difluoro-4H-1-benzopyran-4-one] as the molecule, how does the IC50 [1] read?
Its IC50 is 350 nM.

Which IC50 [1] does the source give for `CN1CCN(C(=O)OCc2c(F)c(N)c3c(=O)cc(-c4ccc(N)c(F)c4)oc3c2F)CC1` [Compound 2, 5-Amino-2-(4-amino-3-fluorophenyl)-6,8-difluoro-7-(4-methylpiperazinyl)carbonyloxymethyl-4H-1-benzopyran-4-one] here?
The IC50 was 230 nM.

With `CN(C)CC(=O)OCc1c(F)c(N)c2c(=O)cc(-c3ccc(N)c(F)c3)oc2c1F` [Compound 6, 5-Amino-2-(4-amino-3-fluorophenyl) -7-dimethylaminoacetoxymethyl-6,8-difluoro-4H-1-benzopyran-4-one] as the molecule, how does the response vs control in vivo at 25 mg/kg [2] read?
The response vs control in vivo at 25 mg/kg was 1.2%.

And the IC50 [1]?
Its IC50 is 26 nM.

And the weight of uterus [3]?
Its weight of uterus is 67 mg.

Which response vs control in vivo at 25 mg/kg [2] does the source give for `CN(C)CCC(=O)OCc1c(F)c(N)c2c(=O)cc(-c3ccc(N)c(F)c3)oc2c1F` [Compound 7, 5-Amino-2-(4-amino-3-fluorophenyl)-7-(3-dimethylaminopropionyl) oxymethyl-6,8-difluoro-4H-1-benzopyran-4-one] here?
Its response vs control in vivo at 25 mg/kg is 4.1%.

What about the IC50 [1] of the same molecule?
The IC50 was 19 nM.

What does the source list for `CN(C)CCCC(=O)OCc1c(F)c(N)c2c(=O)cc(-c3ccc(N)c(F)c3)oc2c1F` [Compound 8, 5-A-mino-2-(4-amino-3-fluorophenyl)-7-(4-dimethylaminobutyryl)oxymethyl-6,8-difluoro-4H-1-benzopyran-4-one]?
response vs control in vivo at 25 mg/kg [2]: 15%; IC50 [1]: 29 nM

How did the response vs control in vivo at 25 mg/kg [2] turn out when `Nc1ccc(-c2cc(=O)c3c(N)c(F)c(COC(=O)CN4CCCCC4)c(F)c3o2)cc1F` [Compound 9, 5-Amino-2-(4-amino-3-fluorophenyl)-6,8-difluoro-7-piperidinoacetoxymethyl-4H-1-benzopyran-4-one] was run?
Its response vs control in vivo at 25 mg/kg is 4.2%.

And the IC50 [1]?
Its IC50 is 33 nM.

Which response vs control in vivo at 25 mg/kg [2] does the source give for `CN1CCN(CC(=O)OCc2c(F)c(N)c3c(=O)cc(-c4ccc(N)c(F)c4)oc3c2F)CC1` [Compound 10, 5-Amino-2-(4-amino-3-fluorophenyl)-6,8-difluoro-7-(4-methylpiperazinyl)acetoxymethyl-4H-1-benzopyran-4-one] here?
The response vs control in vivo at 25 mg/kg was 7%.

What about the IC50 [1] of the same molecule?
Its IC50 is 87 nM.

Which response vs control in vivo at 25 mg/kg [2] does the source give for `Nc1ccc(-c2cc(=O)c3c(N)c(F)c(COC(=O)CN4CCOCC4)c(F)c3o2)cc1F` [Compound 11, 5-Amino-2-(4-amino-3-fluorophenyl)-6,8-difluoro-7-morpholinoacetoxymethyl-4H-1-benzopyran-4-one] here?
Its response vs control in vivo at 25 mg/kg is 4.4%.

What about the IC50 [1] of the same molecule?
The IC50 was 17 nM.

`Nc1ccc(-c2cc(=O)c3c(N)c(F)c(COC(=O)CN4CCC(O)CC4)c(F)c3o2)cc1F` [Compound 12, 5-Amino-2-(4-amino-3-fluorophenyl) -6,8-difluoro-7-(4-hydroxypiperidino)acetoxymethyl-4H-1-benzopyran-4-one] was tested. Which response vs control in vivo at 25 mg/kg [2] did it give?
Its response vs control in vivo at 25 mg/kg is 3.5%.

What about the IC50 [1] of the same molecule?
The IC50 was 18 nM.

Which response vs control in vivo at 25 mg/kg [2] does the source give for `CN(C)CCN(C)CC(=O)OCc1c(F)c(N)c2c(=O)cc(-c3ccc(N)c(F)c3)oc2c1F` [Compound 13, 5-Amino-2-(4-amino-3-fluorophenyl)-7-[N-(2-dimethylaminoethyl)-N-methylamino)acetoxymethyl-6,8-difluoro-4H-1-benzopyran-4-one] here?
The response vs control in vivo at 25 mg/kg was 2.2%.

For `COC(=O)CNCC(=O)OCc1c(F)c(N)c2c(=O)cc(-c3ccc(N)c(F)c3)oc2c1F` [Compound 14, 5-Amino-2-(4-amino-3-fluorophenyl)-6,8-difluoro-7-methoxycarbonylmethylaminoacetoxymethyl-4H-1-benzopyran-4-one], which response vs control in vivo at 25 mg/kg [2] is on record?
Its response vs control in vivo at 25 mg/kg is 1.3%.

What about the IC50 [1] of the same molecule?
The IC50 was 13 nM.

With `C=CCOC(=O)OCc1c(F)c(N)c2c(=O)cc(-c3ccc(N)c(F)c3)oc2c1F` [Compound 15, 7-Allyloxycarbonyloxymethyl-5-amino-2-(4-amino-3-fluorophenyl)-6,8-difluoro-4H-1-benzopyran-4-one] as the molecule, how does the IC50 [1] read?
The IC50 was 81 nM.
